In PMC8348310, “Antioxidants Isolated from Elaeagnus umbellata (Thunb.) Protect against Bacterial Infections and Diabetes in Streptozotocin-Induced Diabetic Rat Model” (Molecules, 2021):
≈ marks a conversion by molar mass, not a printed value. Each block holds one compound with its values, some of them ahead of it.

Key:
Bacillus cereus = assay: Broth dilution MIC determination; type: cell-based; conditions: 37 °C, 24 h, read-out: Minimum Inhibitory Concentrations
Protocol: (§1) Antibacterial potential of isolated compound was investigated against both Gram-positive and Gram-negative bacterial strains; Escherichia coli, Bacillus cereus, Salmonella typhi, Klebsiella pneumonia, Pseudomonas aeruginosa and Proteus mirabilis. Bacterial strains were provided by the Department of Pharmacy, University of Malakand, Khyber Pakhtunkhwa, Pakistan, and were kept at 4 °C in agar slants in freeze-dried condition until further use.
(§2) Both Gram-positive and Gram-negative bacterial strains Escherichia coli, Bacillus cereus, Salmonella typhi, Klebsiella pneumonia, Pseudomonas aeruginosa and Proteus mirabilis organism viable count per mL in the stock suspension was determined using surface viable counting technique. About 10^8–10^9 colony-forming units (CFU) per mL were used as inoculum in subsequent experiments. A fresh stock suspension was used each time.
(§3) Minimum inhibitory concentrations (MICs) of morin, phloroglucinol, and 1-hexyl benzene were determined using broth dilution method, following the Clinical and Laboratory Standards Institute (CLSI) guidelines. Stock solutions of morin, phloroglucinol, and 1-hexyl benzene were prepared in dimethylsulphoxide (DMSO). The serial dilutions from the stock solution were made ranging from 500 to 3.90 μg/mL using Mueller–Hinton broth. Sterile centrifuge tubes were arranged in sets of rows for each bacterial inoculum to cover the different concentration of isolated compounds in triplicate. The standard bacterial stock suspension 10^8–10^9 CFU/mL, in 100 μL were inoculated into each tube. A sterility control tube and a growth control tube were also incubated (for each strain). The tubes were incubated at 37 °C for 24 h. After incubation, 40 μL of a 0.4 mg/mL solution of para iodonitrotetrazolium (INT) chloride was added to each tube as an indicator of microbial growth. […] The evaluation for the inhibition of microbial growth was based on the color change of INT to pink, while no color change indicates the absence of growth. The MIC is the lowest concentration of the compounds at which there is no visible growth in the tubes. The concentration that inhibited bacterial growth completely (the first clear tube) was taken as the MIC value. Experiments were performed in triplicate and mean values are presented.
(§4) In order to, determine the sensitivity of the bacterial strains, positive control experiments were conducted, taking ampicillin at a starting concentration of 0.10 mg/mL in sterile water while the final concentrations for these experiments ranged from 25.00 to 0.19 μg/mL. A negative control experiment was conducted using only DMSO.

Klebsiella pneumonia = assay: Broth dilution MIC determination; type: cell-based; conditions: Klebsiella pneumoniae, 37 °C, 24 h, read-out: Minimum Inhibitory Concentrations
Protocol: as §1, §2, §3, §4

Pseudomonas aeruginosa = assay: Broth dilution MIC determination; type: cell-based; conditions: 37 °C, 24 h, read-out: Minimum Inhibitory Concentrations
Protocol: as §1, §2, §3, §4

Escherichia coli = assay: Broth dilution MIC determination; type: cell-based; conditions: 37 °C, 24 h, read-out: Minimum Inhibitory Concentrations
Protocol: as §1, §2, §3, §4

Proteus mirabilis = assay: Broth dilution MIC determination; type: cell-based; conditions: 37 °C, 24 h, read-out: Minimum Inhibitory Concentrations
Protocol: as §1, §2, §3, §4

Staphylococcus aureus = assay: Broth dilution MIC determination; type: cell-based; conditions: 37 °C, 24 h, read-out: Minimum Inhibitory Concentrations
Protocol: as §3, with “Stock” for “Minimum inhibitory concentrations (MICs) of morin, phloroglucinol, and 1-hexyl benzene were determined using broth dilution method, following the Clinical and Laboratory Standards Institute (CLSI) guidelines. Stock”, “The serial dilutions from the stock solution were made ranging from 500 to 3.90 μg/mL using Mueller–Hinton broth.” left out, “The standard bacterial stock suspension 10^8–10^9 CFU/mL, in 100 μL were inoculated into each tube.” left out, “presented. […] A negative control experiment was conducted using only DMSO.” for “presented.”

Salmonella typhi = assay: Broth dilution MIC determination; type: cell-based; conditions: Salmonella enterica, 24 h, read-out: Minimum Inhibitory Concentrations
[1] = DPPH free radical scavenging assay; type: biochemical
Protocol: According to the Brand-Williams assay DPPH (2, 2-diphenyl-1-picrylhydrazyl) free radical scavenging activity of morin was determined. DPPH and compounds stock solutions (1 mg/mL) were prepared in 100 mL methanol with serial dilutions of […], 62.5, 250, 500, and 1000 µg/mL. After that, 0.1 mL morin was mixed with 3.0 mL DPPH solution and incubated at 23 °C for 30 min. Standard ascorbic acid solution was also prepared in the same way using as a positive control. Finally, absorbance was measured at 517 nm via UV spectrophotometer. Results were taken in a set of three experiments and represented as mean ± SEM. Percent free radicals scavenging potential was calculated according to the following Equation (1): (1) % Free radicals Scavenging potential = Blank sample absorbance−sample absorbance/Blank sample absorbance×100
(§5) All the in vitro and in vivo experiments were analyzed in three replicates and determined as mean ± SEM. Student’s t-test and one way ANOVA followed by Dunnett’s post hoc multiple comparison test was used. p ≤ 0.05 were considered as significant. Linear regression analysis was used to calculate the IC50 value for % DPPH, ABTS, α-amylase, and α-glucosidase inhibition against the different concentrations of the test samples by means of Excel program 2007.

[2] = DPPH free radical scavenging assay; type: biochemical; conditions: 125 µg/mL
[3] = ABTS free radical scavenging assay; type: biochemical
Protocol: ABTS (2,2′-azinobis-3-ethylbenzothiazoline-6-sulfonic acid) free radicals inhibition potential were determined according to the reported assay. ABTS solution was prepared in methanol (100 mL). In total, 300 µL of compound (morin, phloroglucinol, and 1-hexyl benzene) was mixed thoroughly with 3.0 mL ABTS solution and incubated for six minutes. Finally, the absorbance was measured through UV spectrophotometer using ascorbic acid as positive control. Percent ABTS free radicals scavenging potential was calculated using the equation No. 1.
as §5

[4] = 1000 µg/mL, listed as ascorbic acid
[5] = linear regression of % scavenging vs concentration

Compound: CC1(C)S[C@@H]2[C@H](NC(=O)[C@H](N)c3ccccc3)C(=O)N2[C@H]1C(=O)O [Ampicillin, ampicillin, reference compound]
MIC (Bacillus cereus): 1.6 µg/mL (≈ 4.58 µM)
MIC (Klebsiella pneumonia): 1.9 ± 1.2 µg/mL (≈ 5.44 µM)
MIC (Pseudomonas aeruginosa): 1.2 ± 0.5 µg/mL (≈ 3.43 µM)
MIC (Escherichia coli): 1 ± 0.1 µg/mL (≈ 2.86 µM)
MIC (Proteus mirabilis): 1.9 ± 1.1 µg/mL (≈ 5.44 µM)
MIC (Staphylococcus aureus): 1.4 ± 0.5 µg/mL (≈ 4.01 µM)
MIC (Salmonella typhi): 1.8 ± 0.1 µg/mL (≈ 5.15 µM)

DPPH IC50 [1, 5]: 29 µg/mL
ABTS IC50 [3, 5]: 32 µg/mL
Compound: O=C1O[C@H]([C@@H](O)CO)C(O)=C1O [Ascorbic acid, ascorbic acid, reference compound]
% DPPH Scavenging Mean ± SEM ([1]; 31.05 µg/mL): 69 ± 0.4%
% DPPH Scavenging Mean ± SEM ([1]; 62.5 µg/mL): 73 ± 0.5%
% DPPH Scavenging Mean ± SEM ([1]; 250 µg/mL): 80 ± 0.4%
% DPPH Scavenging Mean ± SEM ([1]; 500 µg/mL): 86 ± 1.0%
% DPPH Scavenging Mean ± SEM ([1]; 1000 µg/mL): 91 ± 0.5%
% DPPH Scavenging Mean ± SEM [1, 4]: 86 ± 0.5%
% DPPH Scavenging Mean ± SEM [2]: 77 ± 0.4%
% ABTS Scavenging Mean ± SEM ([3]; 31.05 µg/mL): 56 ± 1.1%
% ABTS Scavenging Mean ± SEM ([3]; 62.5 µg/mL): 64 ± 1.0%
% ABTS Scavenging Mean ± SEM ([3]; 125 µg/mL): 70 ± 0.5%
% ABTS Scavenging Mean ± SEM ([3]; 250 µg/mL): 78 ± 0.5%
% ABTS Scavenging Mean ± SEM ([3]; 500 µg/mL): 84 ± 1.1%
% ABTS Scavenging Mean ± SEM ([3]; 1000 µg/mL): 90 ± 0.5%
% ABTS Scavenging Mean ± SEM [3, 4]: 85 ± 0.5%
